Assay results: PubChem BioAssay AID1963959 (Molecular Pharmacology Branch, DTP, NCI, 2024)

Test system: T-47D spheroids with HUVEC/MSC, viability
Experiment: Anticancer human tumor T-47D cell line growth inhibition [PI3K];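 also: spheroids exposed to agents for seven days before reading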;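 as to viability, T/C: percent of DMSO vehicle control luminescence so 100% = untreated growth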
Details: for IC50: curve of first compound; for viability, T/C: stronger effect = lower value
How it was run: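 Tumor cells grown as multi-cell spheroids with HUVEC endothelial cells and MSC fibroblast-like stroma were treated with targeted agents combined with inavolisib, alpelisib, duvelisib or copanlisib. Doses fell in half-log steps from near clinical Cmax, else from 10 microM. Viability was measured.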

[1] = second compound 0.0316 µM, first compound 0.0316 µM
[2] = second compound 0.0316 µM, first compound 0.1 µM
[3] = second compound 0.0316 µM, first compound 0.316 µM
[4] = second compound 0.0316 µM, first compound 1 µM
[5] = second compound 0.0316 µM, first compound 3.16 µM
[6] = second compound 0.0316 µM, first compound 10 µM
[7] = second compound 0.1 µM, first compound 0.0316 µM
[8] = second compound 0.1 µM, first compound 0.1 µM
[9] = second compound 0.1 µM, first compound 0.316 µM
[10] = second compound 0.1 µM, first compound 1 µM
[11] = second compound 0.1 µM, first compound 3.16 µM
[12] = second compound 0.1 µM, first compound 10 µM
[13] = second compound 0.316 µM, first compound 0.0316 µM
[14] = second compound 0.316 µM, first compound 0.1 µM
[15] = second compound 0.316 µM, first compound 0.316 µM
[16] = second compound 0.316 µM, first compound 1 µM
[17] = second compound 0.316 µM, first compound 3.16 µM
[18] = second compound 0.316 µM, first compound 10 µM
[19] = second compound 1 µM, first compound 0.0316 µM
[20] = second compound 1 µM, first compound 0.1 µM
[21] = second compound 1 µM, first compound 0.316 µM
[22] = second compound 1 µM, first compound 1 µM
[23] = second compound 1 µM, first compound 3.16 µM
[24] = second compound 1 µM, first compound 10 µM
[25] = second compound 0.00316 µM, first compound 0.0316 µM
[26] = second compound 0.00316 µM, first compound 0.1 µM
[27] = second compound 0.00316 µM, first compound 0.316 µM
[28] = second compound 0.00316 µM, first compound 1 µM
[29] = second compound 0.00316 µM, first compound 3.16 µM
[30] = second compound 0.00316 µM, first compound 10 µM
[31] = second compound 0.01 µM, first compound 0.0316 µM
[32] = second compound 0.01 µM, first compound 0.1 µM
[33] = second compound 0.01 µM, first compound 0.316 µM
[34] = second compound 0.01 µM, first compound 1 µM
[35] = second compound 0.01 µM, first compound 3.16 µM
[36] = second compound 0.01 µM, first compound 10 µM

`CCCS(=O)(=O)Nc1ccc(F)c(C(=O)c2c[nH]c3ncc(-c4ccc(Cl)cc4)cc23)c1F` + CC(Nc1ncnc2nc[nH]c12)c1cc2cccc(Cl)c2c(=O)n1-c1ccccc1 was tested, and the IC50 (second compound 0.0316 µM) was > 10 µM, the IC50 (second compound 0.1 µM) was > 10 µM and the IC50 (second compound 0.316 µM) was 8.46 µM. For the same compound, the IC50 (second compound 1 µM) was > 10 µM, the IC50 (second compound 3.16 µM) was 9.93 µM and the IC50 (second compound 10 µM) was 9.51 µM. For the same compound, the viability, T/C [1] was 114%, the viability, T/C [2] was 98.7% and the viability, T/C [3] was 84.7%. It also gave a viability, T/C [4] of 98.4%, a viability, T/C [5] of 88.6% and a viability, T/C [6] of 53%. It also gave a viability, T/C [7] of 84.5%, a viability, T/C [8] of 96.1% and a viability, T/C [9] of 105%. It also gave a viability, T/C [10] of 84.8%, a viability, T/C [11] of 104% and a viability, T/C [12] of 52.1%. It also gave a viability, T/C [13] of 107%, a viability, T/C [14] of 87.7% and a viability, T/C [15] of 109%. It also gave a viability, T/C [16] of 83.8%, a viability, T/C [17] of 92% and a viability, T/C [18] of 42.9%. For the same compound, the viability, T/C [19] was 97.2%, the viability, T/C [20] was 106% and the viability, T/C [21] was 89.2%. The viability, T/C [22] was 112%, the viability, T/C [23] was 85.6% and the viability, T/C [24] was 50.3%. It also gave a viability, T/C (second compound 3.16 µM, first compound 0.0316 µM) of 85.5%, a viability, T/C (second compound 3.16 µM, first compound 0.1 µM) of 104% and a viability, T/C (second compound 3.16 µM, first compound 0.316 µM) of 73.6%. The viability, T/C (second compound 3.16 µM, first compound 1 µM) was 84.8%, the viability, T/C (second compound 3.16 µM, first compound 3.16 µM) was 85.3% and the viability, T/C (second compound 3.16 µM, first compound 10 µM) was 49.8%. For the same compound, the viability, T/C (second compound 10 µM, first compound 0.0316 µM) was 84.7%, the viability, T/C (second compound 10 µM, first compound 0.1 µM) was 82.8% and the viability, T/C (second compound 10 µM, first compound 0.316 µM) was 92.2%. It also gave a viability, T/C (second compound 10 µM, first compound 1 µM) of 72.7%, a viability, T/C (second compound 10 µM, first compound 3.16 µM) of 74.7% and a viability, T/C (second compound 10 µM, first compound 10 µM) of 48.2%.

In the case of `C#Cc1c(F)ccc2cc(O)cc(-c3ncc4c(N5CC6CCC(C5)N6)nc(OCC56CCCN5CC(F)C6)nc4c3F)c12` (stereo unspecified) + COc1c(OCCCN2CCOCC2)ccc2c3n(c(=NC(=O)c4cnc(N)nc4)nc12)CCN3, the IC50 (second compound 0.00316 µM) is reported as > 10 µM, the IC50 (second compound 0.01 µM) is reported as > 10 µM and the IC50 (second compound 0.0316 µM) is reported as > 10 µM. The IC50 (second compound 0.1 µM) was < 0.0316 µM, the IC50 (second compound 0.316 µM) was < 0.0316 µM and the IC50 (second compound 1 µM) was < 0.0316 µM. It also gave a viability, T/C [25] of 102%, a viability, T/C [26] of 93.1% and a viability, T/C [27] of 93%. The viability, T/C [28] was 82.5%, the viability, T/C [29] was 116% and the viability, T/C [30] was 109%. It also gave a viability, T/C [31] of 95.1%, a viability, T/C [32] of 99.9% and a viability, T/C [33] of 105%. For the same compound, the viability, T/C [34] was 99.5%, the viability, T/C [35] was 114% and the viability, T/C [36] was 111%. The viability, T/C [1] was 80.5%, the viability, T/C [2] was 78.8% and the viability, T/C [3] was 79.8%. The viability, T/C [4] was 84.8%, the viability, T/C [5] was 79.2% and the viability, T/C [6] was 87.5%. For the same compound, the viability, T/C [7] was 45.1%, the viability, T/C [8] was 46.4% and the viability, T/C [9] was 46.8%. It also gave a viability, T/C [10] of 49.2%, a viability, T/C [11] of 39.6% and a viability, T/C [12] of 49.5%. It also gave a viability, T/C [13] of 20.2%, a viability, T/C [14] of 14.5% and a viability, T/C [15] of 20.5%. For the same compound, the viability, T/C [16] was 22.3%, the viability, T/C [17] was 22.3% and the viability, T/C [18] was 27.1%. For the same compound, the viability, T/C [19] was 7.11%, the viability, T/C [20] was 6.61% and the viability, T/C [21] was 8.19%. The viability, T/C [22] was 8.13%, the viability, T/C [23] was 5.78% and the viability, T/C [24] was 9.52%.

`CNC(=O)c1ccc(N2C(=S)N(c3ccc(C#N)c(C(F)(F)F)c3)C(=O)C2(C)C)cc1F` + COc1c(OCCCN2CCOCC2)ccc2c3n(c(=NC(=O)c4cnc(N)nc4)nc12)CCN3 was tested, and the IC50 (second compound 0.00316 µM) was > 10 µM, the IC50 (second compound 0.01 µM) was > 10 µM and the IC50 (second compound 0.0316 µM) was > 10 µM. For the same compound, the IC50 (second compound 0.1 µM) was < 0.0316 µM, the IC50 (second compound 0.316 µM) was < 0.0316 µM and the IC50 (second compound 1 µM) was < 0.0316 µM. It also gave a viability, T/C [25] of 122%, a viability, T/C [26] of 84.3% and a viability, T/C [27] of 87.8%. For the same compound, the viability, T/C [28] was 81.1%, the viability, T/C [29] was 98.8% and the viability, T/C [30] was 86.5%. For the same compound, the viability, T/C [31] was 102%, the viability, T/C [32] was 90.3% and the viability, T/C [33] was 105%. For the same compound, the viability, T/C [34] was 104%, the viability, T/C [35] was 81.3% and the viability, T/C [36] was 91.2%. It also gave a viability, T/C [1] of 72.3%, a viability, T/C [2] of 80% and a viability, T/C [3] of 72.1%. It also gave a viability, T/C [4] of 69.1%, a viability, T/C [5] of 64.4% and a viability, T/C [6] of 62%. The viability, T/C [7] was 37.6%, the viability, T/C [8] was 44.8% and the viability, T/C [9] was 40%. The viability, T/C [10] was 46%, the viability, T/C [11] was 37.2% and the viability, T/C [12] was 43.8%. For the same compound, the viability, T/C [13] was 18.9%, the viability, T/C [14] was 21.8% and the viability, T/C [15] was 16.7%. The viability, T/C [16] was 19.6%, the viability, T/C [17] was 18.1% and the viability, T/C [18] was 14.9%. The viability, T/C [19] was 5.78%, the viability, T/C [20] was 6.91% and the viability, T/C [21] was 7.72%. The viability, T/C [22] was 3.81%, the viability, T/C [23] was 3.1% and the viability, T/C [24] was 4.67%.
